#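 Growth conditions: 96-well plates. Treatment: test compound, 48 hours, 5 concentrations. Analysis: linear interpolation between bracketing concentrations; unreached endpoints set to highest concentration. The concentration for 50% growth inhibition is given as GI50. TGI: total growth inhibition.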
# Columns and labels:
# Assay in all cases: DTP human tumour cell line panel, 48 h
# [1] = test system: OVCAR-4 ovarian
# [2] = test system: EKVX NSCLC
# [3] = test system: SNB-75 CNS
# [4] = test system: HL-60(TB) leukemia
# [5] = test system: M14 melanoma
# [6] = test system: MALME-3M melanoma
# [7] = test system: ACHN renal
# [8] = test system: DU-145 prostate
# [9] = test system: UACC-62 melanoma
# [10] = test system: COLO 205 colon
# [11] = test system: UACC-257 melanoma
# [12] = test system: SK-MEL-28 melanoma
# [13] = test system: KM12 colon
# [14] = test system: 786-0 renal
# [15] = test system: RPMI-8226 leukemia
# [16] = test system: SF-539 CNS
# [17] = test system: SK-MEL-2 melanoma
# [18] = test system: HCT-15 colon
# [19] = test system: SW-620 colon
# [20] = test system: LOX IMVI melanoma
# [21] = test system: SN12C renal
# [22] = test system: U251 CNS
# [23] = test system: K-562 leukemia
# [24] = test system: MCF7 breast
# [25] = test system: OVCAR-8 ovarian
# [26] = test system: HCC-2998 colon
# [27] = test system: A498 renal
# [28] = test system: HOP-92 NSCLC
# [29] = test system: UO-31 renal
# [30] = test system: HS 578T breast
# [31] = test system: HCT-116 colon
# [32] = test system: SR leukemia
# [33] = test system: SF-295 CNS
# [34] = test system: A549 NSCLC
# [35] = test system: T-47D breast
# [36] = test system: HOP-62 NSCLC
# [37] = test system: NCI/ADR-RES ovarian
# [38] = test system: NCI-H23 lung
# [39] = test system: SF-268 CNS
# [40] = test system: NCI-H460 lung
# [41] = test system: IGROV1 ovarian
# [42] = test system: PC-3 prostate
# [43] = test system: RXF 393 renal
# [44] = test system: MDA-MB-435
# [45] = test system: SK-MEL-5 melanoma
# [46] = test system: MOLT-4 leukemia
# [47] = test system: OVCAR-3 ovarian
# [48] = test system: SK-OV-3 ovarian
# [49] = test system: SNB-19 CNS
# [50] = test system: BT-549 breast
# [51] = test system: TK-10 renal
# [52] = test system: HT29 colon
# [53] = test system: NCI-H522 lung
# [54] = test system: CCRF-CEM leukemia
# [55] = test system: OVCAR-5 ovarian
# [56] = test system: CAKI-1 renal
# [57] = test system: NCI-H226 lung
# [58] = test system: MDA-MB-231 breast
smiles,measurement,setting,value
COc1cc(NS(=O)(=O)c2ccc(-c3cnc(C4CC4)o3)cc2)ccc1F,GI50,[1],2050 nM
same,TGI,[1],36200 nM
same,GI50,[2],1130 nM
same,TGI,[2],95500 nM
same,GI50,[3],158 nM
same,TGI,[3],604 nM
same,GI50,[4],247 nM
same,TGI,[4],6860 nM
same,GI50,[5],269 nM
same,TGI,[5],14800 nM
same,GI50,[6],560 nM
same,TGI,[6],33900 nM
same,GI50,[7],594 nM
same,TGI,[7],46000 nM
same,GI50,[8],765 nM
same,TGI,[8],58900 nM
same,GI50,[9],313 nM
same,TGI,[9],13800 nM
same,GI50,[10],506 nM
same,TGI,[10],9570 nM
same,GI50,[11],2430 nM
same,TGI,[11],33900 nM
same,GI50,[12],1770 nM
same,TGI,[12],23500 nM
same,GI50,[13],277 nM
same,TGI,[13],18100 nM
same,GI50,[14],694 nM
same,TGI,[14],21400 nM
same,GI50,[15],457 nM
same,TGI,[15],39500 nM
same,GI50,[16],274 nM
same,TGI,[16],2180 nM
same,GI50,[17],706 nM
same,TGI,[17],23600 nM
same,GI50,[18],198 nM
same,TGI,[18],17100 nM
same,GI50,[19],287 nM
same,TGI,[19],> 61300 nM
same,GI50,[20],534 nM
same,TGI,[20],17900 nM
same,GI50,[21],546 nM
same,TGI,[21],18100 nM
same,GI50,[22],572 nM
same,TGI,[22],18100 nM
same,GI50,[23],82 nM
same,TGI,[23],> 100000 nM
same,GI50,[24],201 nM
same,TGI,[24],22900 nM
same,GI50,[25],745 nM
same,TGI,[25],56500 nM
same,GI50,[26],1090 nM
same,TGI,[26],12700 nM
same,GI50,[27],83.3 nM
same,TGI,[27],892 nM
same,GI50,[28],579 nM
same,TGI,[28],13100 nM
same,GI50,[29],581 nM
same,TGI,[29],24100 nM
same,GI50,[30],376 nM
same,TGI,[30],23500 nM
same,GI50,[31],290 nM
same,TGI,[31],14100 nM
same,GI50,[32],102 nM
same,TGI,[32],> 100000 nM
same,GI50,[33],205 nM
same,TGI,[33],1460 nM
same,GI50,[34],826 nM
same,TGI,[34],> 45800 nM
same,GI50,[35],436 nM
same,TGI,[35],38900 nM
same,GI50,[36],646 nM
same,TGI,[36],18800 nM
same,GI50,[37],339 nM
same,TGI,[37],10200 nM
same,GI50,[38],989 nM
same,TGI,[38],21400 nM
same,GI50,[39],2650 nM
same,TGI,[39],30700 nM
same,GI50,[40],447 nM
same,TGI,[40],14400 nM
same,GI50,[41],439 nM
same,TGI,[41],24600 nM
same,GI50,[42],329 nM
same,TGI,[42],17000 nM
same,GI50,[43],276 nM
same,TGI,[43],6520 nM
same,GI50,[44],49.8 nM
same,TGI,[44],634 nM
same,GI50,[45],638 nM
same,TGI,[45],13100 nM
same,GI50,[46],564 nM
same,TGI,[46],> 100000 nM
same,GI50,[47],437 nM
same,TGI,[47],16000 nM
same,GI50,[48],606 nM
same,TGI,[48],34600 nM
same,GI50,[49],441 nM
same,TGI,[49],24500 nM
same,GI50,[50],2020 nM
same,TGI,[50],20300 nM
same,GI50,[51],7880 nM
same,TGI,[51],53900 nM
same,GI50,[52],268 nM
same,TGI,[52],12500 nM
same,GI50,[53],316 nM
same,TGI,[53],11800 nM
same,GI50,[54],326 nM
same,TGI,[54],> 100000 nM
same,GI50,[55],1150 nM
same,TGI,[55],29500 nM
same,GI50,[56],408 nM
same,TGI,[56],30600 nM
same,GI50,[57],1240 nM
same,TGI,[57],22100 nM
same,GI50,[58],1360 nM
same,TGI,[58],19500 nM
COC(=O)[C@H](Cc1c[nH]c2ccccc12)NC(=O)[C@@H](OC)[C@@H]1Cc2cc3cc(OC4CC(OC5CC(O)C(O)C(C)O5)C(O)C(C)O4)c(C)c(O)c3c(O)c2C(=O)[C@H]1OC1CC(OC2CC(OC3CC(C)(O)C(O)C(C)O3)C(O)C(C)O2)C(O)C(C)O1 (some centres undefined),GI50,[1],12.5 nM
same,TGI,[1],> 16500 nM
same,GI50,[2],12.5 nM
same,TGI,[2],3000 nM
same,GI50,[3],4.65 nM
same,TGI,[3],24.4 nM
same,GI50,[4],11.9 nM
same,TGI,[4],386 nM
same,GI50,[5],16.9 nM
same,TGI,[5],127 nM
same,GI50,[6],3.9 nM
same,TGI,[6],18.4 nM
same,GI50,[7],47.5 nM
same,TGI,[7],907 nM
same,GI50,[8],7.13 nM
same,TGI,[8],> 16500 nM
same,GI50,[9],3.61 nM
same,TGI,[9],9.83 nM
same,GI50,[10],3.66 nM
same,TGI,[10],8.82 nM
same,GI50,[11],6.62 nM
same,TGI,[11],124 nM
same,GI50,[12],4.24 nM
same,TGI,[12],19.3 nM
same,GI50,[13],5.58 nM
same,TGI,[13],1050 nM
same,GI50,[14],15.8 nM
same,TGI,[14],> 16500 nM
same,GI50,[15],5.57 nM
same,TGI,[15],60.7 nM
same,GI50,[16],5.46 nM
same,TGI,[16],24.4 nM
same,GI50,[17],4.9 nM
same,TGI,[17],14.5 nM
same,GI50,[18],441 nM
same,TGI,[18],> 16500 nM
same,GI50,[19],8.63 nM
same,GI50,[20],3.91 nM
same,TGI,[20],11.1 nM
same,GI50,[21],6.24 nM
same,TGI,[21],7420 nM
same,GI50,[22],6.42 nM
same,TGI,[22],> 16500 nM
same,GI50,[23],11.8 nM
same,TGI,[23],> 16500 nM
same,GI50,[24],3.91 nM
same,TGI,[24],2550 nM
same,GI50,[25],9.7 nM
same,TGI,[25],> 16500 nM
same,GI50,[26],6.59 nM
same,TGI,[26],38.2 nM
same,GI50,[27],5.17 nM
same,TGI,[27],24.9 nM
same,GI50,[28],3.9 nM
same,TGI,[28],33.3 nM
same,GI50,[29],215 nM
same,TGI,[29],1180 nM
same,GI50,[30],5.66 nM
same,TGI,[30],157 nM
same,GI50,[31],5.37 nM
same,TGI,[31],> 16500 nM
same,GI50,[32],3.76 nM
same,TGI,[32],> 8990 nM
same,GI50,[33],11.2 nM
same,TGI,[33],3210 nM
same,GI50,[34],8.73 nM
same,TGI,[34],> 16500 nM
same,GI50,[35],7.5 nM
same,TGI,[35],> 9760 nM
same,GI50,[36],7.71 nM
same,TGI,[36],5530 nM
same,GI50,[37],> 11700 nM
same,TGI,[37],> 16500 nM
same,GI50,[38],6.14 nM
same,TGI,[38],50.6 nM
same,GI50,[39],8.91 nM
same,TGI,[39],1780 nM
same,GI50,[40],6.11 nM
same,TGI,[40],> 5240 nM
same,GI50,[41],7.43 nM
same,TGI,[41],> 7790 nM
same,GI50,[42],8.8 nM
same,TGI,[42],412 nM
same,GI50,[43],8.33 nM
same,TGI,[43],24.3 nM
same,GI50,[44],7.84 nM
same,TGI,[44],39.4 nM
same,GI50,[45],6.21 nM
same,TGI,[45],30.8 nM
same,GI50,[46],6.54 nM
same,GI50,[47],7.01 nM
same,TGI,[47],112 nM
same,GI50,[48],11.6 nM
same,TGI,[48],> 16500 nM
same,GI50,[49],7.77 nM
same,TGI,[49],> 16500 nM
same,GI50,[50],5.27 nM
same,TGI,[50],31 nM
same,GI50,[51],65.1 nM
same,TGI,[51],> 6460 nM
same,GI50,[52],6.11 nM
same,GI50,[53],5.09 nM
same,TGI,[53],55.2 nM
same,GI50,[54],6.4 nM
same,TGI,[54],> 6280 nM
same,GI50,[55],10.2 nM
same,TGI,[55],> 16500 nM
same,GI50,[56],345 nM
same,TGI,[56],> 16500 nM
same,GI50,[57],6.5 nM
same,TGI,[57],145 nM
same,GI50,[58],9.75 nM
same,TGI,[58],603 nM

# Source: PubChem BioAssay (NCI)
